The source made the active and inactive calls. The calls are words filed in the database; no cut-off is given here.
Assays:
RS4-11 = assay: Cytotoxicity against human RS4-11 cells assessed as reduction in cell viability measured after 3 days by CellTiter-Glo assay; format: functional, cell-based; settings: RS4-11, 72 h
HaCaT = assay: Cytotoxicity against human HaCaT cells assessed as effect on cell viability at 10^-10 to 10^-5 M measured after 3 days by CellTiter-Glo assay; format: cell-based; settings: 72 h, dose 0.0001-10 µM, time 3 day
[1] = target: Protein cereblon/Tyrosine-protein kinase JAK1 (Homo sapiens, UniProt P23458+Q96SW2); assay: Protac activity at CRBN/JAK1 in human RS4-11 cells assessed as degradation of JAK1 measured after 24 hrs by immunoblotting analysis; format: cell-based
IMR-90 = assay: Cytotoxicity against human IMR-90 cells assessed as effect on cell viability at 10^-10 to 10^-5 M measured after 3 days by CellTiter-Glo assay; format: cell-based; settings: imr-90, 72 h, dose 0.0001-10 µM, time 3 day
[2] = tested on: Protein cereblon/Tyrosine-protein kinase JAK2 (Homo sapiens), O60674+Q96SW2 [UNDEFINED MUTATION]; assay: Protac activity at CRBN/JAK2 V617 mutant in human HEL cells assessed as decrease in JAK2 V617 mutant protein level at < 60 nM measured after 24 hrs by immunoblotting analysis; format: cell-based; settings: dose nM <60, time 24.0 hrs
Sequence of Protein cereblon/Tyrosine-protein kinase JAK2 (Homo sapiens), O60674+Q96SW2 [UNDEFINED MUTATION] (O60674 whole entry, looked up, change not shown): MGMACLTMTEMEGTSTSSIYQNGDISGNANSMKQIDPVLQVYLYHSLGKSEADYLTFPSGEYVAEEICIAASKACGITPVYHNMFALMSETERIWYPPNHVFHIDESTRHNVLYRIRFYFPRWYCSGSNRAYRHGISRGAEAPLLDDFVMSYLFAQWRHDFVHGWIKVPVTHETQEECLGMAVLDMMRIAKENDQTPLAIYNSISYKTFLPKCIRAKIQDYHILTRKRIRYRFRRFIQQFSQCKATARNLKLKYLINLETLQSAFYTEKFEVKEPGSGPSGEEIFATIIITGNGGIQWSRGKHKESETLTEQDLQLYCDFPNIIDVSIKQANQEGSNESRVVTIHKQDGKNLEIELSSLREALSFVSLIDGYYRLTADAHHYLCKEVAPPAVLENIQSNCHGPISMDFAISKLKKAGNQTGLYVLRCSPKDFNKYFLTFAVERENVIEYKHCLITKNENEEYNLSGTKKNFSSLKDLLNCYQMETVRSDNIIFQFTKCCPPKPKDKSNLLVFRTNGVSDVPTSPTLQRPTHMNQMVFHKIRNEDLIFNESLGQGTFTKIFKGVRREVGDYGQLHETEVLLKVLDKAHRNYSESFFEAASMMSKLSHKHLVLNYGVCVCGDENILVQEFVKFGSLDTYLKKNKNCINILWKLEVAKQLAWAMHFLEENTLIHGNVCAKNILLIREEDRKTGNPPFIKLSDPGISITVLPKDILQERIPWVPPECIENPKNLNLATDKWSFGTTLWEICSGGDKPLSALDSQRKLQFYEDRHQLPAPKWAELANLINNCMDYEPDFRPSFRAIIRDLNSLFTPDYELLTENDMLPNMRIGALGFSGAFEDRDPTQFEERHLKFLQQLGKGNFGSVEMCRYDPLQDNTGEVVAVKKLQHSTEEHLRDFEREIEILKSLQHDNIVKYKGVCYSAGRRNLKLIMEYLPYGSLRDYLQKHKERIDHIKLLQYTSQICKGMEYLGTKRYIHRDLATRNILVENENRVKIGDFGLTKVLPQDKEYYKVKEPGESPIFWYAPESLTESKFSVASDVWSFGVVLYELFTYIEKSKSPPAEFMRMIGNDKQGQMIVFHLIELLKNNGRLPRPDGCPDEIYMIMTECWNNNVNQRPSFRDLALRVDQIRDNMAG
Sequence of Protein cereblon/Tyrosine-protein kinase JAK2 (Homo sapiens), O60674+Q96SW2 [UNDEFINED MUTATION] (Q96SW2 whole entry, looked up, change not shown): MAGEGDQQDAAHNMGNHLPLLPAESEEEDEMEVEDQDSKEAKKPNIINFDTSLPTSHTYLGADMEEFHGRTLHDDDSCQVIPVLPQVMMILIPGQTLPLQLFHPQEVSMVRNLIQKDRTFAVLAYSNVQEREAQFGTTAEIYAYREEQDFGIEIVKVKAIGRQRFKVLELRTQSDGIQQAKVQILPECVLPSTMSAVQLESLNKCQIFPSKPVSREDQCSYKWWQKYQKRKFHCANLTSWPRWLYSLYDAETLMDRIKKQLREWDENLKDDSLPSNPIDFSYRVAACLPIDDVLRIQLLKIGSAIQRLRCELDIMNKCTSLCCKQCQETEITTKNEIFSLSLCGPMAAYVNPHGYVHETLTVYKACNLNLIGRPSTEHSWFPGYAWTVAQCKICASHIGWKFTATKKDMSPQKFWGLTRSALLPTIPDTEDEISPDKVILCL

Sequence of Protein cereblon/Tyrosine-protein kinase JAK1 (P23458 whole entry): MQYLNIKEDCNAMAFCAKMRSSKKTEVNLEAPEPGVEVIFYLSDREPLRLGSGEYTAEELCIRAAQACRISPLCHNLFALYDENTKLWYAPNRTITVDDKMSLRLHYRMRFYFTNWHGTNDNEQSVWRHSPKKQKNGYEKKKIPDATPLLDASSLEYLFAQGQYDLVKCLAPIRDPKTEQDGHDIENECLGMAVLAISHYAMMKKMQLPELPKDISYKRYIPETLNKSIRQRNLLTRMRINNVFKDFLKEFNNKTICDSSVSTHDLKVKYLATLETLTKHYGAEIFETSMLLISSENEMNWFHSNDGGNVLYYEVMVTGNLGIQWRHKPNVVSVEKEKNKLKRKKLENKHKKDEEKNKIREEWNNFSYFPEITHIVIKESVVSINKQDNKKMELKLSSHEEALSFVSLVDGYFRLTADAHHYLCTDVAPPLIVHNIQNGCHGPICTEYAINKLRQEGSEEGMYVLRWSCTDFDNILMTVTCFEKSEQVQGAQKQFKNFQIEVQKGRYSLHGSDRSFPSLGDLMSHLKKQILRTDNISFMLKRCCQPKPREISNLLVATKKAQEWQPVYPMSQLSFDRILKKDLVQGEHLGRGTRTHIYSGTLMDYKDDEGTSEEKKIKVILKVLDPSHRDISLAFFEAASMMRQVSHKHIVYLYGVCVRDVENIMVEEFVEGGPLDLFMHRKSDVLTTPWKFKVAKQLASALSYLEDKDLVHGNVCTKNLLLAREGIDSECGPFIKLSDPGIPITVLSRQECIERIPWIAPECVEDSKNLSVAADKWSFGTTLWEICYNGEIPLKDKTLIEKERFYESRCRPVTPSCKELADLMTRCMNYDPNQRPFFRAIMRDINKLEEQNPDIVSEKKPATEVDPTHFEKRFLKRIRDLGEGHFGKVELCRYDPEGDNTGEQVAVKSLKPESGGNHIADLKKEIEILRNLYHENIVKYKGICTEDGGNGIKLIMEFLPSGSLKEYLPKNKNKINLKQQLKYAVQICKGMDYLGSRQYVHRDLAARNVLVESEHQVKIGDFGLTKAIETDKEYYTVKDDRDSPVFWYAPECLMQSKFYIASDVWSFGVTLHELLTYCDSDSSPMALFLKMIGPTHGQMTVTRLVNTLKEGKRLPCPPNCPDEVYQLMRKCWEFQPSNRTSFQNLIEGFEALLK
Sequence of Protein cereblon/Tyrosine-protein kinase JAK1 (Q96SW2 whole entry): as the sequence (Q96SW2 whole entry, looked up, change not shown) above

Row | Compound | IC50 (RS4-11) [nM] | also measured
1 | CS(=O)(=O)c1ccc(-c2cccc3nc(Nc4ccc(N5CCN(CC(=O)NCCCCCCCNc6ccc7c(c6)C(=O)N(C6CCC(=O)NC6=O)C7=O)CC5)cc4)nn23)cc1 (configuration not stated) | 63.5 | 
2 | CS(=O)(=O)c1ccc(-c2cccc3nc(Nc4ccc(N5CCN(C(=O)CCCCCNc6ccc7c(c6)C(=O)N(C6CCC(=O)NC6=O)C7=O)CC5)cc4)nn23)cc1 (configuration not stated) | 7.3 | 
3 | O=C1CCC(N2Cc3ccc(OCCCCCCC(=O)N4CCC(n5cc(-c6cnc7cccc(-c8cc(F)c(CN9CCOCC9)c(F)c8)c7n6)cn5)CC4)cc3C2=O)C(=O)N1 (configuration not stated) | 3.8 | 
4 | O=C1CCC(N2C(=O)c3ccc(NCCCCCC(=O)N4CCC(n5cc(-c6cnc7cccc(-c8cc(F)c(CN9CCOCC9)c(F)c8)c7n6)cn5)CC4)cc3C2=O)C(=O)N1 (configuration not stated) | 2.03 | Activity (HaCaT): Non-Toxic; DC50 [1]: < 5 nM; Activity (IMR-90): Non-Toxic
5 | O=C1CCC(N2C(=O)c3ccc(NCCCCC(=O)N4CCC(n5cc(-c6cnc7cccc(-c8cc(F)c(CN9CCOCC9)c(F)c8)c7n6)cn5)CC4)cc3C2=O)C(=O)N1 (configuration not stated) | 13.8 | 
6 | CS(=O)(=O)c1ccc(-c2cccc3nc(Nc4ccc(N5CCN(C(=O)CCCCCCOc6ccc7c(c6)C(=O)N(C6CCC(=O)NC6=O)C7)CC5)cc4)nn23)cc1 (configuration not stated) | 5.4 | 
7 | O=C1CCC(N2C(=O)c3ccc(NCCCCCCCC(=O)N4CCC(n5cc(-c6cnc7cccc(-c8cc(F)c(CN9CCOCC9)c(F)c8)c7n6)cn5)CC4)cc3C2=O)C(=O)N1 (configuration not stated) | 54.4 | 
8 | CS(=O)(=O)c1ccc(-c2cccc3nc(Nc4ccc(N5CCN(C(=O)CCCCCOc6ccc7c(c6)CN(C6CCC(=O)NC6=O)C7=O)CC5)cc4)nn23)cc1 (configuration not stated) | 32.8 | 
9 | CS(=O)(=O)c1ccc(-c2cccc3nc(Nc4ccc(N5CCN(CC(=O)NCCCCCCCCNc6ccc7c(c6)C(=O)N(C6CCC(=O)NC6=O)C7=O)CC5)cc4)nn23)cc1 (configuration not stated) | 8.45 | Activity (HaCaT): Non-Toxic; Activity [2]: Active; DC50 [1]: < 35 nM; Activity (IMR-90): Non-Toxic
10 | O=C1CCC(N2Cc3cc(OCCCCCC(=O)N4CCC(n5cc(-c6cnc7cccc(-c8cc(F)c(CN9CCOCC9)c(F)c8)c7n6)cn5)CC4)ccc3C2=O)C(=O)N1 (configuration not stated) | 3.6 | 
